Laboratory results taken from paper PMC5676089 (Chemical Science, 2017).

Legend:
Settings in all cases: two-fold dilutions in MH broth, 16–18 hours at 37 °C; triplicates
S. aureus Newman (MSSA) = assay: MIC; format: cell-based, Staphylococcus aureus
K. pneumoniae s. = assay: MIC; format: cell-based, Klebsiella pneumoniae
E. coli (W3110) = assay: MIC; format: cell-based, Escherichia coli
P. aeruginosa ZEM1.A = assay: MIC, clinical isolate; format: cell-based, Pseudomonas aeruginosa
P. aeruginosa PEJ2.6 = assay: MIC, clinical isolate; format: cell-based, Pseudomonas aeruginosa
P. aeruginosa PEJ9.1 = assay: MIC, clinical isolate; format: cell-based, Pseudomonas aeruginosa
P. aeruginosa ZEM9.A = assay: MIC, clinical isolate; format: cell-based, Pseudomonas aeruginosa
A. baumannii 19606 = assay: MIC; format: cell-based, Acinetobacter baumannii
S. aureus COL (MRSA) = assay: MIC; format: cell-based, Staphylococcus aureus

**Q.** For Polymyxin B, which “MIC S. aureus Newman (MSSA)” value (S. aureus Newman (MSSA)) is on record?
**A.** >64 μg mL^–1

**Q.** What about the “MIC K. pneumoniae s.” value (K. pneumoniae s.) of the same substance?
**A.** 1 μg mL^–1

**Q.** What about the “MIC E. coli (W3110)” value (E. coli (W3110)) of the same substance?
**A.** 0.125 μg mL^–1

**Q.** And the “MIC ZEM1.A” value (P. aeruginosa ZEM1.A)?
**A.** 0.125 μg mL^–1

**Q.** What about the “MIC PEJ2.6” value (P. aeruginosa PEJ2.6) of the same substance?
**A.** 0.5 μg mL^–1

**Q.** And the “MIC PEJ9.1” value (P. aeruginosa PEJ9.1)?
**A.** 0.5 μg mL^–1

**Q.** What about the “MIC ZEM9.A” value (P. aeruginosa ZEM9.A) of the same substance?
**A.** 4 μg mL^–1

**Q.** And the “MIC A. baumannii 19606” value (A. baumannii 19606)?
**A.** 0.125 μg mL^–1

**Q.** And the “MIC S. aureus COL (MRSA)” value (S. aureus COL (MRSA))?
**A.** >64 μg mL^–1
